Legend:
Rattus norvegicus [1] = species: Rattus norvegicus; assay: Compound was tested for percent recovery of noradrenergic tone after washing aortic preparations with fresh Kreb's buffer; format: functional; details: Aorta
Rattus norvegicus [2] = species: Rattus norvegicus; assay: Compound was tested for its vasodilator effects on endothelium-denuded strips of rat aorta precontracted with noradrenaline; format: functional

N#Cc1c(-c2ccccc2)no[n+]1[O-] [FUROXAN]
Recovery (Rattus norvegicus [1]): 66%

O=[N+]([O-])OCC(CO[N+](=O)[O-])O[N+](=O)[O-] [NITROGLYCERIN]
EC50 (Rattus norvegicus [2]): 22 nM

From ChEMBL document CHEMBL1127832, “Furoxans as nitric oxide donors. 4-Phenyl-3-furoxancarbonitrile: thiol-mediated nitric oxide release and biological evaluation” (J Med Chem, 1994)
